# Results reported in US20060160897A1, “Topical Use of Valproic Acid for the Prevention or Treatment of Skin Disorders” (priority 2003, published 2006).
# What was measured:
# HaCaT cells = test: BrdU incorporation assay; assay type: cell-based, human; conditions: VPA added day 0, assay day 2, FIG. 4
# Method: BrdU incorporation assays: Cell proliferation was detected by labeling cells with BrdU. […] Cells were incubated for 1 hour in the culture medium and then fixed with 70% ethanol. The incorporated BrdU was detected by the indirect immunoperoxidase method (Amersham, Arlington Heights, Ill.). Briefly, the culture cells were first incubated for 1 hour with Biotin-Mouse Anti-BrdU antibody. After washing in TTBS buffer (20 mM Tris, 500 mM NaCl, 0.05% Tween-20, pH 7.5), the cells were further incubated with Biotinylated goat anti-mouse immunoglobulins for 10 min. Cells were then washed and incubated with enzyme (peroxidase) conjugate for 10 min at room temperature. […] The positive cells were counted on 10 randomly picked microscopic fields. HaCaT cells were plated in 35 mm diameter wells on day 0. […] The BrdU assay was carried out on day 2.
# histone H4 acetylation [1] = test: Western blot of acetylated histone H4 in keratinocytes; assay type: cell-based, human; conditions: HaCaT, 24 hours treatment; FIG. 7
# Method: Western blot: HaCaT cells were seeded into 6-well culture dishes 24 hrs before treatment. […] Whole cell extracts were prepared by lysis of cells in RIPA buffer plus protease inhibitors for denaturing SDS gel electrophoresis on a 12% denaturing polyacrylamid gel. Acetylated histone H4 was detected by Western blot analysis using an anti-acetylated H4 antibody (clone T25; see patent application EP 02.021984.6) and as an equal loading control expression of β-actin was confirmed using an anti-actin antibody (Sigma, Cat. No. A5441).
# Cells were plated in 6 well plates at day 0. Drugs were added on day 1, cells were lysed on day 2 with RIPA buffer plus protease inhibitors. 40 μg of total cell lysate were separated by 12.5% SDS PAGE and subjected to immunoblotting with the indicated antibodies.
# histone H4 acetylation [2] = test: Immunohistochemistry of acetylated H4 after topical application to mouse skin; assay type: in vivo; conditions: athymic nude mice, VPA topically applied at 3% (w/w) vs placebo; FIGS. 8 and 9
# Method: Cryostat skin sections of 3 μm thickness were fixed in acetone at room temperature for 10 min. Before staining with anti-acetylated H4 antibody (clone T25, see above) the tissue was blocked by preincubation with F(ab′)2 fragments derived from goat anti-mouse immunoglobulin (Cappel) ( 1/10000 dilution in 50 mM Tris buffered saline, TBS) for 30 min. After rinsing with TBS for 10 min, the sections were incubated with anti-acetylated H4 antibody (clone T25) ( 1/4000 dilution in TBS) at room temperature for 1 hour. Then, the specimens were incubated with the rabbit anti-mouse serum and treated with APAAP (alkaline phosphatase anti-alkaline phosphatase) immunocomplex as described above. The positive staining was developed in red color with naphthol-AS-BI phosphate as a substrate, and New Fuchsin (Dako) as a chromogen. Pictures were taken with a digital camera connected to a light microscopy apparatus.
# Skin biopsies were frozen in liquid nitrogen immediately after excision. Immunohistochemistry was then performed on 3 μm sections as described in methods. Biopsies of skin topically treated with Placebo or VPA were processed in parallel, pictures were taken with a light microscopy apparatus connected to a digital camera under the same light intensity.
# IL-2 and TNF-α = IL-2 and TNF-α ELISA, supernatants of stimulated peripheral blood lymphocytes; assay type: cell-based, human
# Method: Monocyte and macrophage depleted peripheral blood mononuclear cells were obtained from consenting adults via separation using Ficoll-Hypaque. The peripheral blood mononuclear cells (PBMC) fraction was washed and seeded in 9 cm petri dishes. After an incubation of 2 hours at 37° C. to remove most of the monocytes, macrophages, and B-cells, the non-adherent cells were collected and cultured in 175 cm^2 flasks for 2 days. Cells were harvested and adjusted to 3 million cells per ml. Aliquots of 500 μl were transferred to each well of 24-well flat bottom plates. Peripheral blood lymphocytes (PBL's) were treated with various concentrations of HDAC inhibitors as indicated. After a 2 hours incubation time at 37° C. cells were stimulated with phorbol 12-myristate 13-acetate (PMA)/ionomycin (Ion) or activated via T cell receptor (TCR/CD3) complex with 10 μg/ml anti-CD3 mAb (OKT3) and 2.5 μg/ml anti-CD28 mAb. After 24 hours at 37° C. the supernatant was removed and frozen for cytokine assays. Cell pellets were lysed and total RNA was isolated using the RNeasy mini kit from Qiagen.
# To perform ELISAs, supernatants of treated and untreated PBL's were collected and IL-2 as well as TNF-α were measured using the Duo Set ELISA Development System (R&D Systems) as described by the manufacturer.
# [3] = 1 mM, other experiments, PBLs stimulated with PMA/ION and CD3/CD28 mAbs, FIG. 16
# [4] = PBLs, increasing concentrations two hours, CD3 and CD28 mAbs 24 hours, FIG. 15
smiles,measurement,setting,value
"CCCC(CCC)C(=O)O [VPA, 2-propyl-pentanoic acid]",BrdU positive cells (cell cycle arrest),HaCaT cells,dose-dependent reduction of BrdU positive cells
same,histone H4 acetylation (Western blot),histone H4 acetylation [1],induces histone H4 hyperacetylation in a dose dependent manner
same,histone H4 acetylation in skin cells,histone H4 acetylation [2],clear increase of histone H4 acetylation
same,IL-2 secretion,"IL-2 and TNF-α; 0.5 mM, PBLs, CD3/CD28, FIG. 15",only moderate effect
same,IL-2 secretion,"IL-2 and TNF-α; 1 mM, PBLs, CD3/CD28, FIG. 15",only moderate effect
same,IL-2 secretion,IL-2 and TNF-α; [3],significant decrease
same,TNF-α secretion,IL-2 and TNF-α; [3],significant decrease
same,IL-2 secretion,"IL-2 and TNF-α; 5 mM, PBLs, CD3/CD28, FIG. 15",significantly reduced
same,"IL-2 secretion, dose-response",IL-2 and TNF-α; [4],dose-dependent inhibition
same,"TNF-α secretion, dose-response",IL-2 and TNF-α; [4],dose-dependent inhibition
